Patent US20260356823A1, “SODIUM CHANNEL REGULATOR AND USE THEREOF” (SHANGHAI HUILUN PHARMACEUTICAL CO., LTD., priority 2022, published 2026)

How the values were obtained:
[1] = biological target: T1, human Nav1.8 (Homo sapiens, UniProt Q9Y5Y9); experiment: In vitro inhibition of Nav1.8, manual patch clamp on HEK293 cells stably expressing human Nav1.8; type: cell-based; settings: HEK293, 100 nM, human Nav1.8, manual patch clamp, read-out: Inhibitory activity (inhibition/% at 100 nM concentration)
T1 construct: expressed in transfected cells
Experimental: Bioactivity Test 1: In Vitro Inhibition of Nav1.8 by the Compound
By using a manual patch clamp on HEK293 cells stably expressing human Nav1.8, currents on Nav1.8 before and after administration of the compound were compared after the currents on Nav1.8 were stable, to obtain the effect of the compound on the Nav1.8 channel.
The to-be-tested compound was dissolved in DMSO to prepare a 9 mM stock solution, which was taken and dissolved in extracellular fluid at a desired concentration on the day of testing. The extracellular fluid included the following ingredients (mM): NaCl, 137; KCl, 4; CaCl2, 1.8; MgCl2, 1; HEPES, 10; glucose, 10; and pH 7.4 (NaOH titration). All reagents were purchased from Sigma (St. Louis, MO).
The cells were clamped at −80 mV and depolarized with a sustained 10 ms square wave to 10 mV to obtain a current on Nav1.8. This process was repeated every 5 seconds. A maximum current caused by the square wave was detected. After the current is stable, the to-be-tested compound (dissolved in the extracellular fluid at the desired concentration) was perfused. After the current is stable, the strength of blocking Nav1.8 by the compound was calculated based on the currents before and after perfusion of the compound. pCLAMP 10 (Molecular Devices, Union City, CA) was used. That the current is stable means that the current changes over time within a limited range.

[2] = biological target: T2, Nav1.8 sodium channel (Homo sapiens, UniProt Q9Y5Y9); experiment: In vitro inhibition IC50 of Nav1.8, whole-cell patch clamp on CHO cell line stably expressing Nav1.8 (SCN10A, NM_006514); type: cell-based; settings: CHO cells stably expressing Nav1.8, whole-cell patch clamp, room temperature
T2 construct: expressed in transfected cells
Excerpt: Bioactivity Test 2: In Vitro Inhibition IC50 of Nav1.8 by the Test Compound
A CHO cell line stably expressing the Nav1.8 sodium channel was used for experimental assays with the following gene information: Sodium channel, voltage-gated, type 8, alpha (SCN10A), cDNA strictly similar to GenBank accession number: NM_006514.
Before the patch clamp assay, the cells were detached with 0.25%-Trypsin-EDTA, and 6.5×10^3 cells were spread onto cover slips and cultured in a 24-well plate (final volume: 500 μL) for 18 h. Then, the assay was carried out.
Fluids for electrophysiological recording included: extracellular fluid: K-007-1, 140 mM NaCl, 3.5 mM KCl, 1 mM MgCl2·6H2O, 2 mM CaCl2·2H2O, 10 mM D-Glucose, 10 mM HEPES, 1.25 mM NaH2PO4·2H2O, and NaOH for adjustment to pH=7.4; and intracellular fluid: Nav-001-2, 50 mM CsCl, 10 mM NaCl, 10 mM HEPES, 60 mM CsF, 20 mM EGTA, and […]. The extracellular fluid was stored for 2 weeks. The intracellular fluid was prepared and dispensed as 1 mL per tube, and frozen in a refrigerator at −20° C. Freshly thawed intracellular fluid was used for daily experiments. All intracellular fluids have to be used up within three months. Beyond three months, the old intracellular fluid has to be discarded, and the intracellular fluid needs to be prepared again.
Patch clamp assay: Whole-cell patch-clamp recording Nav1.8 sodium currents under voltage stimulation was carried out as follows: When a whole-cell seal was formed, the cell was clamped at a voltage of −120 mV and maintained for 30 ms. The cell was depolarized from the clamping voltage to 0 mV and maintained for 50 ms. Then, the voltage was restored to −50 mV (for a specific voltage, refer to a half-inactivation voltage from an IV test) and maintained for 5 s. Next, the cell membrane potential was restored to −120 mV and maintained for 20 ms. Then, the cell was depolarized to 0 mV and maintained for 50 ms. Finally, the voltage was restored to the clamping voltage −120 mV and maintained for 30 ms. Data was collected at […]. The effect of the drug on a peak sodium current was observed. Experimental data was collected by an EPC 10 amplifier (HEKA) and stored in PatchMaster (HEKA) software.
A capillary glass tube was pulled into a recording electrode by using a microelectrode puller. The electrode filled with the intracellular fluid was loaded into an electrode holder. A microelectrode manipulator was manipulated under an inverted microscope to immerse the electrode into the extracellular fluid, and an electrode resistance (Rpip) was recorded. The electrode was brought into contact with the cell surface, and suction was applied under negative pressure to form a high-resistance seal (GQ). In this case, fast capacitance compensation was carried out, and negative pressure was then applied to break the cell membrane through suction to form a whole-cell recording mode. Then, slow capacitance compensation was carried out, and experimental parameters such as a membrane capacitance (Cm) and a series resistance (Rs) were recorded. No leakage compensation was carried out.
The drug was administered after the Nav1.8 current obtained by whole-cell recording. The drug acted at each concentration for 5 min (or until the current was stable), and then the drug was tested at a next concentration. Each test compound was tested for multiple concentrations. The cover slips with the cells spread were placed in a recording bath under an inverted microscope. A blank control extracellular fluid and a working solution of the to-be-tested compound were perfused by gravity through the recording bath into the cells from low concentration to high concentration. Fluid exchange was carried out by using a peristaltic pump during the recording. A current detected for each cell in the compound-free extracellular fluid served as its own control. For each concentration, at least three cells were tested independently for three times. […]

T1 sequence (Q9Y5Y9 whole entry): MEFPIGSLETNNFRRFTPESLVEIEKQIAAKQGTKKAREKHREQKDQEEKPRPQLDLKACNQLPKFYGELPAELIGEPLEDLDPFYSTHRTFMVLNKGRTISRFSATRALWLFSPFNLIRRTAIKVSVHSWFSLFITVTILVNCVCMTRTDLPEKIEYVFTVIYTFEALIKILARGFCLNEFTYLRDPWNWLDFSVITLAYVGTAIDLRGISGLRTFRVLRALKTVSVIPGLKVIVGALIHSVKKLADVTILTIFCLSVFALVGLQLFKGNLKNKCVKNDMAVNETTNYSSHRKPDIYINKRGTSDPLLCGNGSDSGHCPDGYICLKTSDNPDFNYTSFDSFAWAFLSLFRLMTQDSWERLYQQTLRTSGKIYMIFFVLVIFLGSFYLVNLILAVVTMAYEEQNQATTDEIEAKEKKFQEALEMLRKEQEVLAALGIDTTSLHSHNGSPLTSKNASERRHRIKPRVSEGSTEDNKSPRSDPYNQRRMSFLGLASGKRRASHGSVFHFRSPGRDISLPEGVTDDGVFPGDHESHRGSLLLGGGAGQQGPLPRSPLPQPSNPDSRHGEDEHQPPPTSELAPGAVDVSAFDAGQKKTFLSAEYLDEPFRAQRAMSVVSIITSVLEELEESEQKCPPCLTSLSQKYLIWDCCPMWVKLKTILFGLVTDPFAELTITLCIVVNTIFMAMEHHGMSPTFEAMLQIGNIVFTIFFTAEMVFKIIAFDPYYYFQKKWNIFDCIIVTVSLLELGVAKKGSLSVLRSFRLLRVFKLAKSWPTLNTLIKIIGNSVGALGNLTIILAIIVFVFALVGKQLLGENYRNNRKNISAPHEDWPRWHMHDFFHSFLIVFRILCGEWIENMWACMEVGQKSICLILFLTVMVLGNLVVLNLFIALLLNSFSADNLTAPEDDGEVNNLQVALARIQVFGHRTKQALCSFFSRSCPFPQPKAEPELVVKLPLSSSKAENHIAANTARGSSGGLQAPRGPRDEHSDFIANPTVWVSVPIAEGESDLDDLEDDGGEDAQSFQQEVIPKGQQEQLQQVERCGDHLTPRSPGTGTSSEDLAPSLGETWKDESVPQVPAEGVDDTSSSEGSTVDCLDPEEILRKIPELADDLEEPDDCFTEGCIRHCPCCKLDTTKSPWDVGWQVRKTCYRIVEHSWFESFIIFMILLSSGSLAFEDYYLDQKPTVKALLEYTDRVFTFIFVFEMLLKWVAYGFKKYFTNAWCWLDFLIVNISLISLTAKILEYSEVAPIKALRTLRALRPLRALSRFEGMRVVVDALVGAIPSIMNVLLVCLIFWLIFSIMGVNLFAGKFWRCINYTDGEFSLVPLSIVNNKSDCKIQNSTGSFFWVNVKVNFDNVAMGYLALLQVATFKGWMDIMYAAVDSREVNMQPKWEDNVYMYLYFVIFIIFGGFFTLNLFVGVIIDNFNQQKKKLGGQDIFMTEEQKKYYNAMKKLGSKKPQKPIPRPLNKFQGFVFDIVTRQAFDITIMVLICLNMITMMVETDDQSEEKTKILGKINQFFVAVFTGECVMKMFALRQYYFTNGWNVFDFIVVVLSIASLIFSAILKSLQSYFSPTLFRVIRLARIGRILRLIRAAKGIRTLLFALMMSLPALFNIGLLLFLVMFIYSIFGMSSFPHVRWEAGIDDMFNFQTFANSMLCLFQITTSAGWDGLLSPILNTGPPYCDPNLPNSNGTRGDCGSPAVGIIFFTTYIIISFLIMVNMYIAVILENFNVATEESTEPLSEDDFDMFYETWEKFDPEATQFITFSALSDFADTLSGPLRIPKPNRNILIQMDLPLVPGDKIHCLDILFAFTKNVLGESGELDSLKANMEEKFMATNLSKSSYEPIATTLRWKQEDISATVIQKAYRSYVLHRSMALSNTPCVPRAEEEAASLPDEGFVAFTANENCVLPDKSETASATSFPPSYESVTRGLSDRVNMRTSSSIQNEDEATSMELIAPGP
T2 sequence (Q9Y5Y9 whole entry): as above

| Structure (SMILES) | inhibition at 0.1 µM [1] [%] | IC50 [2] [nM] |
| --- | --- | --- |
| COc1c(C2[C@H](C(=O)Nc3ccc(F)c(S(N)(=O)=O)c3)O[C@@](C)(C(F)(F)F)[C@H]2C)ccc(F)c1F (relative stereo) [Example 81] | ≥ 50 | < 0.5 |
| CCNS(=O)(=O)c1cc(NC(=O)[C@@H]2O[C@@](C)(C(F)(F)F)[C@@H](C)[C@H]2c2ccc(F)c(F)c2OC)ccn1 (relative stereo) [Example 83, rel-(2R,3S,4S,5R)-3-(3,4-difluoro-2-methoxyphenyl)-N-(2-(N-ethylsulfamoyl)pyridin-4-yl)-4,5-dimethyl-5-(trifluoromethyl)tetrahydrofuran-2-carboxamide] | ≥ 50 |  |
| COc1c(C2C(C(=O)Nc3ccc(C(N)=O)c(C(N)=O)c3)OC(C)(C(F)(F)F)C2C)ccc(F)c1F (single isomer, unassigned) [Example 30-1] | < 50 |  |
| COc1c([C@H]2[C@H](C(=O)Nc3ccnc(S(C)(=O)=O)c3)O[C@]3(C(F)(F)F)CC[C@]23C)ccc(F)c1F (relative stereo) [Example 101, rel-(1R,3R,4S,5R)-4-(3,4-difluoro-2-methoxyphenyl)-5-methyl-N-(2-methylsulfonyl)pyridin-4-yl)-1-trifluoromethyl-2-oxabicyclo[3.2.0]heptane-3-carboxamide] | ≥ 50 |  |
| COc1c([C@H]2[C@H](C(=O)Nc3ccc(C(N)=O)nc3)O[C@]3(C(F)(F)F)CC[C@]23C)ccc(F)c1F [Example 97, 5-((1S,3R,4S,5S)-4-(3,4-difluoro-2-methoxyphenyl)-5-methyl-1-(trifluoromethyl)-2-oxabicyclo[3.2.0]heptane-3-formylamino)pyridinecarboxamide] | ≥ 50 |  |
| COc1c([C@H]2[C@H](C(=O)Nc3ccc4c(=O)[nH][nH]c(=O)c4c3)O[C@@](C)(C(F)(F)F)[C@H]2C)ccc(F)c1F (relative stereo) [Example 12] | ≥ 50 |  |
| COc1c([C@H]2[C@H](C(=O)Nc3ccc4c(c3)C(=O)NC4=O)O[C@@](C)(C(F)(F)F)[C@H]2C)ccc(F)c1F (relative stereo) [Example 10, rel-(2R,3S,4S,5R)-3-(3,4-difluoro-2-methoxyphenyl)-N-(1,3-dioxo-2,3-dihydro-1H-isoindol-5-yl)-4,5-dimethyl-5-(trifluoromethyl)tetrahydrofuran-2-carboxamide] | ≥ 50 |  |
| COc1c([C@H]2[C@H](C(=O)Nc3ccnc(C(=O)N4CCCO4)c3)O[C@@](C)(C(F)(F)F)[C@H]2C)ccc(F)c1F (relative stereo) [Example 32, rel-(2R,3S,4S,5R)-3-(3,4-difluoro-2-methoxyphenyl)-4,5-dimethyl-N-[2-(tetrahydroisoxazol-2-ylcarbonyl)pyridin-4-yl]-5-(trifluoromethyl)tetrahydrofuran-2-carboxamide] | ≥ 50 |  |
| COc1c([C@H]2[C@H](C(=O)Nc3ccnc(C(O)CF)c3)O[C@]3(C(F)(F)F)CC[C@]23C)ccc(F)c1F (relative stereo) [Example 89, rel-(1R,3R,4S,5R)-4-(3,4-difluoro-2-methoxyphenyl)-N-(2-(2-fluoro-1-hydroxyethyl)pyridin-4-yl)-5-methyl-1-(trifluoromethyl)-2-oxabicyclo[3.2.0]heptane-3-carboxamide] | ≥ 50 |  |
| COc1c([C@H]2[C@H](C(=O)Nc3ccnc4c(N)nccc34)O[C@@](C)(C(F)(F)F)[C@H]2C)ccc(F)c1F [Example 7] | ≥ 50 |  |
| COc1c([C@H]2C(C(=O)Nc3ccc4c(c3)S(=O)(=O)NC4=O)O[C@@](C)(C(F)(F)F)[C@H]2C)ccc(F)c1F (relative stereo) [Example 79, rel-(2R,3S,4S,5)-3-(3,4-difluoro-2-methoxyphenyl)-4,5-dimethyl-5-(trifluoromethyl)-N-(1,1,3-trioxo-2,3-dihydro-1λ6-benzo[d][1,2]thiazol-6-yl)tetrahydrofuran-2-carboxamide] | ≥ 50 |  |
| COc1c([C@H]2[C@H](C(=O)Nc3ccnc(C(N)=S)c3)O[C@@](C)(C(F)(F)F)[C@H]2C)ccc(F)c1F (relative stereo) [Example 22, rel-(2R,3S,4S,5R)—N-[2-(aminothiomethylidene)pyridin-4-yl]-3-(3,4-difluoro-2-methoxyphenyl)-4,5-dimethyl-5-(trifluoromethyl)tetrahydrofuran-2-carboxamide] | ≥ 50 |  |
| COc1c(C2C(C(=O)Nc3ccnc(OCC(O)CO)c3)OC3(C(F)(F)F)CCC23C)ccc(F)c1F [Example 95, rel-(1R,3R,4S,5R)-4-(3,4-difluoro-2-methoxyphenyl)-N-(2-(S)-2,3-dihydroxypropoxypyridin-4-yl)-5-methyl-1-trifluoromethyl-2-oxabicyclo[3.2.0]heptane-3-carboxamide] | ≥ 50 |  |
| COc1c([C@H]2C(C(=O)Nc3ccc(S(N)(=O)=O)nc3)O[C@]3(C(F)(F)F)CC[C@]23C)ccc(F)c1F (stereo partly shown) [Example 99] | ≥ 50 |  |
| COc1c([C@H]2[C@H](C(=O)Nc3ccc(C(O)CO)nc3)O[C@]3(C(F)(F)F)CC[C@]23C)ccc(F)c1F (relative stereo) [Example 98, rel-(1R,3R,4S,5R)-4-(3,4-difluoro-2-methoxyphenyl)-N-(6-(1,2-dihydroxyethyl)pyridin-3-yl)-5-methyl-1-trifluoromethyl-2-oxabicyclo[3.2.0]heptane-3-carboxamide] | ≥ 50 |  |
| COc1c([C@H]2[C@H](C(=O)Nc3cc(F)[nH]c(=O)c3)O[C@@](C)(C(F)(F)F)[C@H]2C)ccc(F)c1F (relative stereo) [Example 24, rel-(2R,3S,4S,5R)-3-(3,4-difluoro-2-methoxyphenyl)-N-(6-fluoro-2-oxo-1H-pyridin-4-yl)-4,5-dimethyl-5-(trifluoromethyl)tetrahydrofuran-2-carboxamide] | ≥ 50 |  |
| COc1c([C@H]2[C@H](C(=O)Nc3cc[n+](C)c(C(N)=O)c3)O[C@@](C)(C(F)(F)F)[C@H]2C)ccc(F)c1F (relative stereo) [Example 16, rel-2-carbamoyl-4-((2R,3S,4S,5R)-3-(3,4-difluoro-2-methoxyphenyl)-4,5-dimethyl-5-(trifluoromethyl)tetrahydrofuran-2-carboxamido)-1-methylpyridin-1-onium iodide] | ≥ 50 |  |
| COc1c([C@H]2[C@H](C(=O)Nc3ccc(C#N)c(C(N)=O)c3)O[C@@](C)(C(F)(F)F)[C@H]2C)ccc(F)c1F (relative stereo) [Example 25, rel-(2R,3S,4S,5R)—N-(3-carbamoyl-4-cyanophenyl)-3-(3,4-difluoro-2-methoxyphenyl)-4,5-dimethyl-5-(trifluoromethyl)tetrahydrofuran-2-carboxamide] | ≥ 50 |  |
